Some test systems named below: COLO 205 colon; DU-145 prostate; HCC-2998 colon; HCT-116 colon; HL-60(TB) leukemia; HOP-62 NSCLC; LOX IMVI melanoma; MCF7 breast; NCI-H23 lung; SK-MEL-2 melanoma.
Common to all, as to experiment: DTP human tumour cell line panel, 48 h

Where “and” joins values, the source holds several entries; their conditions need not be identical. Identical values can stand only once.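 A five-concentration, 48-hour dose response in 96-well plates underlies each endpoint, interpolated linearly between surrounding concentrations. The concentration for 50% growth inhibition is given as GI50. TGI is the concentration that stops growth completely.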

As usually defined, the GI50 is the concentration giving 50% growth inhibition. As a reminder, the TGI is the concentration at which net growth stops. Read a low TGI as greater sensitivity of the cells.

Turning to `O=S(=O)(NCCNC/C=C/c1ccc(Br)cc1)c1cccc2cnccc12`, the GI50 is 2.23 µM and 10.7 µM in the assay with COLO 205 colon; 12.4 µM and 14.5 µM in the assay with DU-145 prostate; 3.18 µM and 3.91 µM with HCC-2998 colon; 7.6 µM and 11.2 µM in the assay on HCT-116 colon; > 24.6 µM and 9.48 µM with HL-60(TB) leukemia; 7.49 µM and 8.6 µM with HOP-62 NSCLC. The GI50 was 7.64 µM and 12.1 µM with LOX IMVI melanoma; 8.98 µM and 9.53 µM in the assay on MCF7 breast; 11.3 µM and 13.1 µM in the assay on NCI-H23 lung; 11.2 µM and 16.8 µM with SK-MEL-2 melanoma. In addition, the TGI in the assay on COLO 205 colon is 4.9 µM and 24.6 µM; in the assay with DU-145 prostate, 25.1 µM and 27.6 µM; with HCC-2998 colon it was 10 µM and 14 µM; with HCT-116 colon it was 22 µM and 24 µM; in the assay on HL-60(TB) leukemia it was > 49.4 µM and 28.1 µM; with HOP-62 NSCLC it was 21.7 µM and 22.2 µM. For the same molecule, the TGI is 25.6 µM and 25.2 µM in the assay with LOX IMVI melanoma; 25.1 µM and 25.4 µM in the assay on MCF7 breast; 25.8 µM and 27.5 µM in the assay with NCI-H23 lung; 24.4 µM and 34 µM with SK-MEL-2 melanoma.

Turning to `C[C@]12CCC3[C@@H](CC[C@@H]4c5nonc5CC[C@]34C)C1CCC(=O)N2` (stereo partly drawn), the TGI with COLO 205 colon, in the assay on DU-145 prostate, in the assay with HCC-2998 colon, in the assay with HCT-116 colon, in the assay on HL-60(TB) leukemia and in the assay with HOP-62 NSCLC was greater than 100 µM in each case. The TGI in the assay with LOX IMVI melanoma, in the assay on MCF7 breast, in the assay with NCI-H23 lung and in the assay with SK-MEL-2 melanoma was greater than 100 µM throughout. Besides, the GI50 in the assay with DU-145 prostate, in the assay on HCC-2998 colon and in the assay on MCF7 breast was greater than 100 µM in each case.

Turning to `O=[N+]([O-])c1cccc(-c2nc3sccn3c2-c2ccnc(NCCCNS(=O)(=O)c3cccc(F)c3)n2)c1`, the GI50 in the assay on COLO 205 colon is 2.46 µM; in the assay with DU-145 prostate it was 2.6 µM; with HCC-2998 colon it was 6.79 µM; in the assay on HCT-116 colon it was 2.74 µM; in the assay on HL-60(TB) leukemia it was 2.97 µM; in the assay with HOP-62 NSCLC, 3.5 µM. Moreover, the GI50 is 2.58 µM in the assay with LOX IMVI melanoma, 2.16 µM in the assay with MCF7 breast, 1.98 µM with NCI-H23 lung and 2.04 µM in the assay on SK-MEL-2 melanoma. Further, the TGI was 8.11 µM with COLO 205 colon; 12.9 µM with DU-145 prostate; greater than 100 µM in the assay on HCC-2998 colon; greater than 100 µM in the assay with HCT-116 colon; 8.57 µM in the assay with HL-60(TB) leukemia; 14.1 µM in the assay on HOP-62 NSCLC. Also, the TGI was determined as 11 µM with LOX IMVI melanoma, 8.48 µM in the assay on MCF7 breast, 7.34 µM in the assay on NCI-H23 lung and 5.98 µM with SK-MEL-2 melanoma.

`O=c1[nH]c2ccccc2nc1-c1c[nH]c2ccccc12`: the GI50 with COLO 205 colon, in the assay on DU-145 prostate, with HCC-2998 colon, in the assay on HCT-116 colon, with HL-60(TB) leukemia and in the assay with HOP-62 NSCLC was greater than 100 µM each time. For the same molecule, the GI50 with LOX IMVI melanoma was greater than 100 µM; in the assay on MCF7 breast, 93.4 µM; in the assay with NCI-H23 lung, greater than 100 µM; in the assay with SK-MEL-2 melanoma it was greater than 100 µM. Moreover, the TGI in the assay with COLO 205 colon, in the assay on DU-145 prostate, with HCC-2998 colon, in the assay with HCT-116 colon, in the assay on HL-60(TB) leukemia and with HOP-62 NSCLC was greater than 100 µM in each case. Also, the TGI with LOX IMVI melanoma, in the assay on MCF7 breast, in the assay with NCI-H23 lung and in the assay on SK-MEL-2 melanoma was greater than 100 µM throughout.

For `CN1CCN(Cc2ccc(NC(=O)c3cncc(C#Cc4cnc(N)c5ccncc45)c3)cc2C(F)(F)F)CC1`, the GI50 is 0.181 µM in the assay with COLO 205 colon; 0.527 µM with DU-145 prostate; 1.78 µM in the assay on HCC-2998 colon; 0.442 µM in the assay with HCT-116 colon; 0.387 µM with HL-60(TB) leukemia; 1.03 µM in the assay on HOP-62 NSCLC. Besides, the GI50 with LOX IMVI melanoma is 0.176 µM; in the assay with MCF7 breast, 1.93 µM; with NCI-H23 lung it was 0.9 µM; in the assay with SK-MEL-2 melanoma, 0.3 µM. Moreover, the TGI in the assay with COLO 205 colon is 1.95 µM; with DU-145 prostate it was 6.67 µM; in the assay with HCC-2998 colon, 7.89 µM; with HCT-116 colon, 3.04 µM; in the assay on HL-60(TB) leukemia it was 2.89 µM; in the assay with HOP-62 NSCLC, greater than 16.6 µM. For the same molecule, the TGI in the assay on LOX IMVI melanoma came out at 0.707 µM; in the assay with MCF7 breast it was 8.92 µM; in the assay with NCI-H23 lung it was 6.79 µM; in the assay with SK-MEL-2 melanoma, 1.07 µM.

Take `CCCn1c(C)nc2c1C(=O)c1ccccc1C2=O`: the GI50 was 37.6 µM in the assay with COLO 205 colon; 23.5 µM in the assay on DU-145 prostate; 50.2 µM with HCC-2998 colon; 23.7 µM in the assay with HCT-116 colon; 9.61 µM with HL-60(TB) leukemia; 41.3 µM in the assay with HOP-62 NSCLC. Besides, the GI50 is 22.9 µM in the assay with LOX IMVI melanoma, 30.9 µM in the assay with MCF7 breast, 26.7 µM with NCI-H23 lung and 59.4 µM with SK-MEL-2 melanoma. Moreover, the TGI in the assay on COLO 205 colon was greater than 100 µM; with DU-145 prostate, greater than 100 µM; with HCC-2998 colon it was greater than 100 µM; in the assay on HCT-116 colon it was 65.9 µM; in the assay with HL-60(TB) leukemia, 45.8 µM; with HOP-62 NSCLC it was greater than 100 µM. Besides, the TGI with LOX IMVI melanoma, in the assay on MCF7 breast, with NCI-H23 lung and in the assay with SK-MEL-2 melanoma was greater than 100 µM throughout.

Values taken from PubChem BioAssay (NCI).
